Experimental data from patent US5753709A, “N-acyl-2 aryl cyclopropylmethylamine derivatives as melatonergics” (Bristol-Myers Squibb Company, priority 1996, dated 1998).

Test system: rats
Assay: not given
Conditions: exogenous administration; cited from earlier work

SMILES	effect on circadian rhythms
COc1ccc2[nH]cc(CCNC(C)=O)c2c1 [melatonin, N-acetyl-5-methoxytryptamine]	found to synchronize circadian rhythms in rats

Biological target: T1, human melatonin receptor (human ML1A) (Homo sapiens, UniProt P48039)
T1 construct: expressed in transfected cells; host or cells: COS-1 cells (transient, pcDNAI, DEAE-dextran); membrane homogenates
T1 sequence (P48039 whole entry): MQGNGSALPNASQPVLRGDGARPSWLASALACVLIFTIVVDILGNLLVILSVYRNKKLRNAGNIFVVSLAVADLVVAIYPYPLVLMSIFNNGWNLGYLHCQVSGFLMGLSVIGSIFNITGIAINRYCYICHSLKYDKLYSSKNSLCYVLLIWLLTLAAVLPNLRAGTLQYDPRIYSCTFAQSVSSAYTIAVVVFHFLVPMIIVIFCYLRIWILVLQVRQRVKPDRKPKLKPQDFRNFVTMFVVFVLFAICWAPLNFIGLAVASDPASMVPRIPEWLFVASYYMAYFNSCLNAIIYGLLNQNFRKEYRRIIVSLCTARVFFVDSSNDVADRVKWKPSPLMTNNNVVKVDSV
Assay: Melatonergic binding: displacement of 2-[125I]-iodomelatonin at the human melatonin receptor (human ML1A in COS-1 membranes)
Conditions: Table 5; displacement of 2[125I]-Iodomelatonin (100 pM), 37° C., 1 hour
Protocol: The melatonergic binding of the compounds of Formula I was determined by a modification of the method of Reppert, S. M. et al. (Neuron, Volume 13, pages 1177-1185, 1994). […] The reagents, membranes, and other parameters used in the assay are described below:
(a) 50 mM Tris buffer containing 12.5 mM MgCl2, and 2 mM EDTA (pH 7.4 at 37° C.).
(b) Wash buffer: 20 mM Tris base containing 2 mM MgCl2 (pH 7.4 at room temperature).
(c) 6-Chloromelatonin (10^-5 M final concentration).
(d) 2-[^125 I]-Iodomelatonin (100 pM final concentration). (Source: NEN) Membrane preparation: The cDNA (human ML1A) in pcDNAI was introduced into COS-1 cells by the DEAE-dextran method. Three days later, after media removal, the plates were washed with buffered saline; the cells removed using Hank's balanced salt solution and pelleted. The supernant was discarded and the pellets frozen. For membrane homogenates, the pellets were thawed and resuspended in TME buffer, Tris base, MgCl2, EDTA (pH 7.4 at 37° C.), and supplemented with aprotinin, leupeptin, and phenylmethylsulfonyl fluoride. The cells were homogenized and centrifuged; the resulting pellet resuspended in TME and frozen. At assay, the small aliquot was thawed on ice and resuspended in TME buffer. Incubation: 37° C. for 1 hour. Reaction is terminated by filtration.

SMILES	IC50 [nM]
CCCC(=O)NC[C@@H]1C[C@H]1c1cccc(CC)c1 (relative stereo) [Example 114, (trans)-N-[2-[(3-Ethylphenyl)cycloprop-1-yl]methyl] butanamide]	5 to 40
CCCC(=O)NC[C@@H]1C[C@H]1c1cccc(OCCCCC2CCCCC2)c1 (relative stereo) [Example 116]	5 to 40
CCCC(=O)NC[C@@H]1C[C@H]1c1cccc(OCCC(C)CC(C)(C)C)c1 (relative stereo) [Example 121]	5 to 40
CCCC(=O)NC[C@@H]1C[C@H]1c1cccc(OCCc2cccc(C(F)(F)F)c2)c1 (relative stereo) [Example 123, (trans)-N-[[2-[3-[2-[3-(Trifluoromethyl)phenyl]ethoxy]phenyl]cycloprop-1-yl]methyl] butanamide]	< 5
CCCC(=O)NC[C@@H]1C[C@H]1c1cccc(OCCc2ccccc2F)c1 (relative stereo) [Example 128, (trans)-N-[[2-[3-[2-(2-Fluorophenyl)ethoxy]phenyl]cycloprop-1-yl]methyl] butanamide]	5 to 40
CC(C)C(=O)NC[C@@H]1C[C@H]1c1cccc(F)c1 (single isomer, unassigned) [Example 65, (-)-(trans)-N-[[2-(3-Fluorophenyl)cycloprop-1-yl]methyl]-2-methylpropanamide]	250 to 600
CCCC(=O)NC[C@@H]1C[C@H]1c1ccccc1 (single isomer, unassigned) [Example 90, (-)-(trans)-N-[(2-Phenylcycloprop-1-yl)methyl] butanamide]	40 to 250
CCCC(=O)NC[C@@H]1C[C@H]1c1cc(OCCCc2cccc(OC)c2)ccc1I (single isomer, unassigned) [Example 93, (-)-(trans)-N-[[2-[2-Iodo-5-[3-(3-methoxyphenyl)propoxy]phenyl]cycloprop-1-yl)methyl] butanamide]	5 to 40

Continued, values first:

IC50 [nM]	SMILES
< 5	CCCC(=O)NC[C@@H]1C[C@H]1c1cccc(OCCCCCc2ccccc2)c1 (relative stereo) [Example 110, (trans)-N-[[2-[3-[(5-Phenylpent-1-yl)oxy]phenyl]cycloprop-1-yl]methyl] butanamide]
< 5	CCCC(=O)NC[C@@H]1C[C@H]1c1cccc(OCCCC2CCCC2)c1 (relative stereo) [Example 120, (trans)-N-[[2-[3-[(3-Cyclopentylprop-1-yl)oxy]phenyl]cycloprop-1-yl]methyl] butanamide]
5 to 40	C#CC(C)=CCOc1cccc([C@@H]2C[C@H]2CNC(=O)CCC)c1 (relative stereo) [Example 122]
5 to 40	CCCC(=O)NC[C@@H]1C[C@H]1c1cccc(OCCc2cccc(F)c2)c1 (relative stereo) [Example 125, (trans)-N-[[2-[3-[2-(3-Fluorophenyl)ethoxy]phenyl]cycloprop-1-yl]methyl] butanamide]
5 to 40	CCCC(=O)NC[C@@H]1C[C@H]1c1cccc(OCCCc2ccc(OC)cc2)c1 (relative stereo) [Example 127, (trans)-N-[[2-[3-[3-(4-Methoxyphenyl)propoxy]phenyl]cycloprop-1-yl]methyl]butanamide]
< 5	CCCC(=O)NC[C@@H]1C[C@H]1c1cccc(OCCCc2cccc(OC)c2)c1 (single isomer, unassigned) [Example 84, (-)-(trans)-N-[[2-[3-[3-(3-Methoxyphenyl)propoxy]phenyl]cycloprop-1-yl)methyl] butanamide]

Same assay, conditions: Table 6; displacement of 2[125I]-Iodomelatonin (100 pM), 37° C., 1 hour

IC50 [nM]	SMILES
40 to 250	COc1cccc([C@H]2[C@H](CNC(=O)C(C)C)C2(F)F)c1 (relative stereo) [Example 134, (trans)-N-[[3-(3-Methoxyphenyl)-2,2-difluoro--cycloprop-1-yl]methyl]-2-methylpropanamide]
250 to 600	CCCC(=O)NCC[C@@H]1C[C@H]1c1cccc(OC)c1 (single isomer, unassigned) [Example 16, (-)-(trans)-N-[[2-(3-Methoxyphenyl)cyclopropyl]ethyl]butanamide]

Same assay, conditions: read-out: Binding affinity (IC50) at the human melatonin receptor; Table 5; displacement of 2[125I]-Iodomelatonin (100 pM), 37° C., 1 hour

IC50 [nM]	SMILES
< 5	[2H]C([2H])([2H])Oc1cccc([C@@H]2C[C@H]2CNC(=O)CCC)c1 (relative stereo) [Example 111, (trans)-N-[2-[(3-Trideuteromethoxyphenyl)cycloprop-1-yl]methyl] butanamide]
